# Source: ChEMBL document CHEMBL4673222, “Discovery of a Bioactive Inhibitor with a New Scaffold for Cystathionine γ-Lyase” (J Med Chem, 2019)
# Calls of active or inactive are those of the source. The calls are words filed in the database; no cut-off is given here.
# Key:
# [1] = biological target: T1, Cystathionine gamma-lyase (Homo sapiens, UniProt P32929); assay: Inhibition of human CSE using L-Cys as the substrate by tandem well based HTS assay
# [2] = biological target: T1, Cystathionine gamma-lyase; assay: Inhibition of human CSE expressed in mouse RAW264.7 cells assessed as reduction in amount of released H2S level at >=200 uM by lead acetate method; assay type: cell-based; conditions: dose microM >=200
# [3] = biological target: Cystathionine gamma-lyase (Mus musculus, UniProt Q8VCN5); assay: (§1) Inhibition of CSE in mouse RAW264.7 cells assessed as reduction in endogenous H2S level by AzMC probe based fluorescence assay; assay type: cell-based
# [4] = biological target: Cystathionine gamma-lyase (Mus musculus) (UniProt Q8VCN5); assay: Inhibition of CSE in mouse RAW264.7 cells assessed as reduction in amount of released H2S level at >= 200 uM by lead acetate method; assay type: cell-based; conditions: dose microM >=200
# [5] = biological target: T2, Cystathionine beta-synthase (Homo sapiens, UniProt P35520); assay: Inhibition of human CBS by methylene blue method
# T2 sequence (P35520 whole entry): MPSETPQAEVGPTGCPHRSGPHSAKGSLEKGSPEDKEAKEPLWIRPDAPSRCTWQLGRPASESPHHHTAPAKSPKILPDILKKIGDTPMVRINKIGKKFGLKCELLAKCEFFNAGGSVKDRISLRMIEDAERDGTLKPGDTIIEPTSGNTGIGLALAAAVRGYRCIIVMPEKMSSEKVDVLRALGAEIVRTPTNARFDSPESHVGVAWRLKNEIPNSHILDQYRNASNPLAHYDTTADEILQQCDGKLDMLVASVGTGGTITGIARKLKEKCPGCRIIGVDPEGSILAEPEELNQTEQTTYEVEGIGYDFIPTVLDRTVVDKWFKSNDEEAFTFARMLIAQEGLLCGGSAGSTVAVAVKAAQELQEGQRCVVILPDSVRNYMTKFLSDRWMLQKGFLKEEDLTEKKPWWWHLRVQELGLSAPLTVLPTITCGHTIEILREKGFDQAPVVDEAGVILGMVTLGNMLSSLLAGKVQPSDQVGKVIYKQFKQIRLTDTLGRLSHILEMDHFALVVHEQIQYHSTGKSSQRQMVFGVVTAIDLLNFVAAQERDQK
# [6] = biological target: T1, Cystathionine gamma-lyase; assay: Inhibition of wild type human CSE expressed in HEK293T cells assessed as reduction in H2S contents; assay type: cell-based
# [7] = tested on: Cystathionine gamma-lyase (Homo sapiens), P32929 [R119A]; assay: Inhibition of human CSE R119A mutant expressed in HEK293T cells assessed as reduction in H2S contents at 200 to 500 uM by lead acetate assay; assay type: cell-based; conditions: dose 200-500 µM
# [8] = biological target: T2, Cystathionine beta-synthase; assay: Inhibition of CBS (unknown origin) by methylene blue method
# [9] = tested on: Cystathionine gamma-lyase (Homo sapiens), P32929 [R119K]; assay: Inhibition of human CSE R119K mutant expressed in HEK293T cells assessed as reduction in H2S contents at 200 to 500 uM by lead acetate assay; assay type: cell-based; conditions: dose 200-500 µM
# [10] = biological target: T1, Cystathionine gamma-lyase; assay: Effect on PLP interaction with human CSE assessed as effect on spectra of CSE-bound PLP
# [11] = biological target: T1, Cystathionine gamma-lyase; assay: Inhibition of human CSE using H-Cys as the substrate by tandem well based HTS assay
# Homo sapiens [12] = species: Homo sapiens; assay: Selectivity index, ratio of IC50 for human CSE Y114F mutant to IC50 for wild type human CSE
# [13] = biological target: T1, Cystathionine gamma-lyase; assay: Binding affinity to human CSE by ITC analysis
# Homo sapiens [14] = species: Homo sapiens; assay: Selectivity index, ratio of IC50 for human CBS to IC50 for human CSE
# Homo sapiens [15] = species: Homo sapiens; assay: Selectivity index, ratio of IC50 for human CSE Y114F mutant expressed in HEK293T cells to IC50 for wild type human CSE expressed in HEK293T cells; assay type: cell-based
# Homo sapiens [16] = species: Homo sapiens; assay: Selectivity index, ratio of IC50 for human CSE R119A mutant expressed in HEK293T cells to IC50 for wild type human CSE expressed in HEK293T cells; assay type: cell-based
# Rattus norvegicus [17] = assay: Reversal of hypotension in Sprague-Dawley rat model of hemorrhagic shock assessed as mean artery pressure level at 50 mg/kg, ip after 45 mins (reference value: 35.8 mmHg); assay type: functional; conditions: 0.75 h
# Homo sapiens [18] = species: Homo sapiens; assay: Selectivity index, ratio of Ki for human CSE R119K mutant to Ki for wild type human CSE
# [19] = biological target: Cystathionine gamma-lyase (Mus musculus) (UniProt Q8VCN5); assay: Inhibition of CSE in mouse RAW264.7 cells assessed as increase in levels of cellular H-cys level at 1 to 500 uM by ELISA; assay type: cell-based; conditions: dose 1-500 µM
# [20] = biological target: T2, Cystathionine beta-synthase; assay: Inhibition of wild type human CBS expressed in HEK293T cells assessed as reduction in H2S contents; assay type: cell-based
# Homo sapiens [21] = species: Homo sapiens; assay: Selectivity index, ratio of IC50 for human CBS to IC50 for human DDC
# Homo sapiens [22] = species: Homo sapiens; assay: Selectivity index, ratio of IC50 for human CSE R119A mutant to IC50 for wild type human CSE
# [23] = biological target: T1, Cystathionine gamma-lyase; assay: Inhibition of human CSE by methylene blue method
# Rattus norvegicus [24] = assay: Inhibition of CSE in Sprague-Dawley rat model of hemorrhagic shock assessed as increase in plasma H-cys level at 50 mg/kg, ip after 45 mins by ELISA; assay type: functional, organism-based
# [25] = biological target: Cystathionine gamma-lyase (Homo sapiens, UniProt P32929, R119K); assay: Inhibition of human CSE R119K mutant expressed in HEK293T cells assessed as reduction in H2S contents; assay type: cell-based
# Homo sapiens [26] = species: Homo sapiens; assay: Selectivity index, ratio of IC50 for human CSE Y114A mutant to IC50 for wild type human CSE
# Rattus norvegicus [27] = assay: Inhibition of CSE in Sprague-Dawley rat model of hemorrhagic shock assessed as reduction in plasma H2S level at 50 mg/kg, ip after 45 mins by methylene blue dye based method; assay type: functional, organism-based
# [28] = biological target: Cystathionine gamma-lyase (Mus musculus) (UniProt Q8VCN5); assay: as §1; assay type: cell-based
# [29] = biological target: T1, Cystathionine gamma-lyase; assay: Competitive inhibition of human CSE using varying levels of L-Cys as substrate and fixed PLP levels
# Homo sapiens [30] = species: Homo sapiens; assay: Selectivity index, ratio of Ki for human CSE R119A mutant to Ki for wild type human CSE
# [31] = biological target: T1, Cystathionine gamma-lyase; assay: Inhibition of human CSE using L-Cys as the substrate in presence of 0.01% Triton X-100 by tandem well based HTS assay
# HEK-293T = assay: Toxicity in HEK293T cells assessed as cell viability up to 100 uM incubated for 12 to 24 hrs by CellTiter96 aqueous one solution cell proliferation assay; assay type: cell-based; conditions: human, time 12-24 hrs
# [32] = biological target: T1, Cystathionine gamma-lyase; assay: Inhibition of human CSE using L-Cys as the substrate in presence of 0.025% Triton X-100 by tandem well based HTS assay
# [33] = biological target: T1, Cystathionine gamma-lyase; assay: Inhibition of human CSE using H-Cys as the substrate by LC/MS/MS-based assay
# RAW264.7 = assay: Toxicity in mouse RAW264.7 cells assessed as cell viability up to 100 uM incubated for 12 to 24 hrs by CellTiter96 aqueous one solution cell proliferation assay; assay type: cell-based; conditions: time 12-24 hrs
# Homo sapiens [34] = species: Homo sapiens; assay: Selectivity index, ratio of IC50 for human CSE R119K mutant expressed in HEK293T cells to IC50 for wild type human CSE expressed in HEK293T cells; assay type: cell-based
# Homo sapiens [35] = species: Homo sapiens; assay: Selectivity index, ratio of IC50 for human CSE R62A mutant to IC50 for wild type human CSE
# [36] = biological target: Cystathionine gamma-lyase (Mus musculus) (UniProt Q8VCN5); assay: Potency index, ratio of inhibition activity of PAG to test compound for inhibition of CSE in mouse RAW264.7 cells assessed as reduction in amount of released H2S level by lead acetate method; assay type: cell-based
# [37] = tested on: Cystathionine gamma-lyase (Homo sapiens), P32929 [Y114F]; assay: Inhibition of human CSE Y114F mutant expressed in HEK293T cells assessed as reduction in H2S contents at 200 to 500 uM by lead acetate assay; assay type: cell-based; conditions: dose 200-500 µM
# [38] = biological target: Cystathionine gamma-lyase (Mus musculus) (UniProt Q8VCN5); assay: Inhibition of CSE in mouse RAW264.7 cells assessed as reduction in amount of released H2S level at 20 to 50 uM by lead acetate method; assay type: cell-based; conditions: dose 20-50 µM
# [39] = biological target: T1, Cystathionine gamma-lyase; assay: Inhibition of human CSE expressed in mouse RAW264.7 cells assessed as reduction in amount of released H2S level at 20 to 50 uM by lead acetate method; assay type: cell-based; conditions: dose 20-50 µM
# [40] = biological target: T1, Cystathionine gamma-lyase; assay: Non-covalent reversible inhibition of human CSE
# Homo sapiens [41] = species: Homo sapiens; assay: Selectivity index, ratio of Ki for human CSE Y114F mutant to Ki for wild type human CSE
# [42] = biological target: T1, Cystathionine gamma-lyase; assay: Non-competitive inhibition of human CSE using varying levels of PLP and fixed L-Cys as substrate
# [43] = biological target: Cystathionine gamma-lyase (Homo sapiens, UniProt P32929, R119A); assay: Inhibition of human CSE R119A mutant expressed in HEK293T cells assessed as reduction in H2S contents; assay type: cell-based
# [44] = biological target: Cystathionine gamma-lyase (Homo sapiens, UniProt P32929, Y114F); assay: Inhibition of human CSE Y114F mutant expressed in HEK293T cells assessed as reduction in H2S contents; assay type: cell-based
# [45] = Binding affinity to H2S assessed as absorbing of released H2S up to 100 uM in presence of NaHS as H2S donor; conditions: dose microM <=100
# Homo sapiens [46] = species: Homo sapiens; assay: Selectivity index, ratio of IC50 for human CSE R119K mutant to IC50 for wild type human CSE
# [47] = biological target: T1, Cystathionine gamma-lyase; assay: Inhibition of human CSE expressed in HEK293T cells assessed as reduction in H2S contents at 20 to 50 uM by lead acetate assay; assay type: cell-based; conditions: dose 20-50 µM
# [48] = biological target: T2, Cystathionine beta-synthase; assay: Inhibition of CBS (unknown origin) by AzMC based fluorescence assay
# [49] = Binding affinity to H2S assessed as absorbing of released H2S at 200 uM in presence of NaHS as H2S donor
# T1 sequence (P32929 whole entry): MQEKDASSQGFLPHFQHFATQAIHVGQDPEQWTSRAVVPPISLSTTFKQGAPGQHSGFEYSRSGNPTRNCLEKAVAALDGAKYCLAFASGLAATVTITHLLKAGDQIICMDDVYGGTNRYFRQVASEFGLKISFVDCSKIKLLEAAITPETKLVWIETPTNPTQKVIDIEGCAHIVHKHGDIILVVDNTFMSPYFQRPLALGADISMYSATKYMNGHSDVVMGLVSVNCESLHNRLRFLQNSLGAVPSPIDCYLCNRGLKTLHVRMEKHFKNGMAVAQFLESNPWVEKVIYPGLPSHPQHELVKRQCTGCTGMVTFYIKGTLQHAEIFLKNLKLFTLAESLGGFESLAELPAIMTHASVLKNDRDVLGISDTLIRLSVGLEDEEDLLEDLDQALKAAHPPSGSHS
# Cystathionine gamma-lyase (Mus musculus), sequence (Q8VCN5 whole entry): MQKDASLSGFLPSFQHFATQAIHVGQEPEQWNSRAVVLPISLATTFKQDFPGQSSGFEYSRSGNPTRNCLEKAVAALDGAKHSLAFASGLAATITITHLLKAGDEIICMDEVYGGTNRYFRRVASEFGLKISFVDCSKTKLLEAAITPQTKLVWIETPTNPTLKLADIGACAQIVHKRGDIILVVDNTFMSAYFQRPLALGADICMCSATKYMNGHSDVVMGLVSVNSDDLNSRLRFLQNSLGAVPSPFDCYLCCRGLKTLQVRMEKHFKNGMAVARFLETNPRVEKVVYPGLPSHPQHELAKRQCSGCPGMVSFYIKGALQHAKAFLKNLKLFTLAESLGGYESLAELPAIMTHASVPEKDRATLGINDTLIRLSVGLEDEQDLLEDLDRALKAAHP
# Cystathionine gamma-lyase (Mus musculus, UniProt Q8VCN5), sequence (Q8VCN5 whole entry): as above
# Cystathionine gamma-lyase (Homo sapiens), P32929 [R119K], sequence (P32929 whole entry R119K): as the sequence (P32929 whole entry) above, with R119K counted along it
# Cystathionine gamma-lyase (Homo sapiens, UniProt P32929, R119K), sequence (P32929 whole entry R119K): as the sequence (P32929 whole entry) above, with R119K counted along it
# Cystathionine gamma-lyase (Homo sapiens), P32929 [Y114F], sequence (P32929 whole entry Y114F): as the sequence (P32929 whole entry) above, with Y114F counted along it
# Cystathionine gamma-lyase (Homo sapiens, UniProt P32929, Y114F), sequence (P32929 whole entry Y114F): as the sequence (P32929 whole entry) above, with Y114F counted along it
# Cystathionine gamma-lyase (Homo sapiens, UniProt P32929, R119A), sequence (P32929 whole entry R119A): as the sequence (P32929 whole entry) above, with R119A counted along it
# Cystathionine gamma-lyase (Homo sapiens), P32929 [R119A], sequence (P32929 whole entry R119A): as the sequence (P32929 whole entry) above, with R119A counted along it
smiles,measurement,setting,value
NC1=CC(=O)c2cccnc2C1=O,IC50,[1],< 50 µM
C#CCC(N)C(=O)O (racemic),inhibition,[2],Active
same,IC50,[3],371 µM
same,inhibition,[4],Active
O=C(O)C1=CC(=C(c2ccc(O)c(C(=O)O)c2)c2ccc(O)c(C(=O)O)c2)C=CC1=O [AURINTRICARBOXYLIC ACID],IC50,[5],54.2 µM
same,IC50,[6],34.7 µM
same,inhibition,[6],Dose-dependent effect
same,inhibition,[7],inactive
same,IC50,[1],0.6 µM
same,IC50,[8],20 µM
same,inhibition,[9],inactive
same,Activity,[10],inactive
same,IC50,[11],1.7 µM
same,Ratio IC50,Homo sapiens [12],29.6
same,Kd,[13],3.4 µM
same,Ratio IC50,Homo sapiens [14],137
same,Ratio IC50,Homo sapiens [15],6
same,Ratio IC50,Homo sapiens [16],6
same,Activity,Rattus norvegicus [17],65 mmHg
same,Ratio Ki,Homo sapiens [18],40.5
same,inhibition,[19],Active
same,IC50,[20],> 650 µM
same,Ratio IC50,Homo sapiens [21],143
same,Ratio IC50,Homo sapiens [22],32
same,IC50,[23],2.6 µM
same,inhibition,Rattus norvegicus [24],Active
same,IC50,[25],245 µM
same,Ratio IC50,Homo sapiens [26],> 10
same,inhibition,Rattus norvegicus [27],Active
same,IC50,[3],43.2 µM
same,inhibition,[28],Dose-dependent effect
same,Ki,[29],0.6 µM
same,Ratio Ki,Homo sapiens [30],52
same,IC50,[31],1.8 µM
same,Activity,HEK-293T,Non-Toxic
same,IC50,[32],1.8 µM
same,IC50,[33],3.3 µM
same,inhibition,[33],Dose-dependent effect
same,Activity,RAW264.7,Non-Toxic
same,Ratio IC50,Homo sapiens [34],6
same,Ratio IC50,Homo sapiens [35],> 10
same,Ratio,[36],8
same,inhibition,[37],inactive
same,inhibition,[38],Active
same,inhibition,[39],Active
same,inhibition,[40],Active
same,Ratio Ki,Homo sapiens [41],44.5
same,alphaKi,[42],4.2 µM
same,IC50,[43],371 µM
same,IC50,[44],283 µM
same,Activity,[45],inactive
same,Ratio IC50,Homo sapiens [46],26
same,inhibition,[47],Active
same,IC50,[48],3 µM
Nc1ccc(O)c(C(=O)O)c1 [MESALAMINE],IC50,[1],> 200 µM
O=[N+]([O-])c1ccc(O)c2ncccc12 [NITROXOLINE],IC50,[1],8 µM
same,IC50,[11],10.7 µM
same,Ratio IC50,Homo sapiens [14],62
same,Ratio IC50,Homo sapiens [21],12
same,inhibition,[31],Active
same,inhibition,[32],Active
same,IC50,[33],6 µM
same,Activity,[49],35%
same,Activity,[45],inactive
O=C(O)c1cc(/N=N/c2ccc(O)c(C(=O)O)c2)ccc1O [OLSALAZINE],IC50,[1],> 200 µM
O=C(O)c1ccccc1O [SALICYLIC ACID],IC50,[1],> 200 µM
